How the values were obtained:
[1] = Blockade of human ENaC expressed in HBE cells by short-circuit current assay; format: cell-based
[2] = system: Cavia porcellus; assay: Blockade of ENaC in intratracheally dosed Dunkin Hartley guinea pig tracheal potential difference model after 1 hr; format: functional; details: inhaled or nasal
[3] = Blockade of guinea pig ENaC expressed in FRT cells by short-circuit current assay; format: cell-based; details: Cavia porcellus
[4] = system: Cavia porcellus; assay: Ratio of amiloride ED50 to compound ED50 for blockade of ENaC in intratracheally dosed Dunkin Hartley guinea pig; format: functional
[5] = system: BE; assay: Ratio of amiloride IC50 to compound IC50 for human ENaC expressed in HBE cells; format: cell-based

Row | SMILES | IC50 [1] [nM] | also measured
1 | CCC[C@@H](CNC(=O)c1nc(Cl)c(N)nc1N)[N+](C)(C)CCCc1ccc(OC)cc1 | 4 | 
2 | CC[C@H](CNC(=O)c1nc(Cl)c(N)nc1N)[N+](C)(C)C | 510 | 
3 | N=C(N)NC(=O)c1nc(Cl)c(N)nc1N [AMILORIDE] | 220 | ED50 [2]: 16 µg/kg; IC50 [3]: 540 nM
4 | CCCC[C@@H](CNC(=O)c1nc(Cl)c(N)nc1N)[N+](C)(C)C | 59 | 
5 | CC[C@@H](CNC(=O)c1nc(Cl)c(N)nc1N)[N+](C)(C)C | 750 | 
6 | CCC[C@H](CNC(=O)c1nc(Cl)c(N)nc1N)[N+](C)(C)C | 290 | 
7 | C[N+](C)(C)[C@H](CNC(=O)c1nc(Cl)c(N)nc1N)Cc1ccccc1 | 170 | 
8 | N/C(=N\C(=O)c1nc(Cl)c(N)nc1N)NCCCCc1ccc(OCC(O)CO)cc1 (configuration not stated) [552-02 FREE BASE] | 2 | ED50 [2]: 0.2 µg/kg; IC50 [3]: 4 nM
9 | CC(C)(CNC(=O)c1nc(Cl)c(N)nc1N)[N+](C)(C)C | > 30000 | 
10 | CC(C)[C@@H](CNC(=O)c1nc(Cl)c(N)nc1N)[N+](C)(C)C | 2390 | 
11 | C[C@H](CNC(=O)c1nc(Cl)c(N)nc1N)[N+](C)(C)C | > 10000 | 
12 | CC(C)[C@H](CNC(=O)c1nc(Cl)c(N)nc1N)[N+](C)(C)C | 19500 | 
13 | C[C@@H](CNC(=O)c1nc(Cl)c(N)nc1N)[N+](C)(C)C | 8090 | 
14 | CCC[C@@H](CNC(=O)c1nc(Cl)c(N)nc1N)[N+](C)(C)C.[I-] | 30 | ED50 [2]: 1 µg/kg; Ratio ED50 [4]: 16; IC50 [3]: 30 nM; Ratio IC50 [5]: 10
